US20180148418A1, “AMIDO-SUBSTITUTED CYCLOHEXANE DERIVATIVES” (Bayer Pharma Aktiengesellschaft, priority 2015, published 2018)

Legend:
TNKS2 = target: T1, TNKS2 (Homo sapiens, UniProt Q9H2K2); experiment: TNKS2 Assay B (auto-parsylation, [3H]-NAD+ SPA); assay type: biochemical; conditions: 6 nM TNKS2, auto-parsylation, over night at room temperature
T1 construct: purchased BPS Bioscience, San Diego, USA 80572 (TNKS2 Histone Ribosylation Assay Kit)
T1 sequence (Q9H2K2 1-1166): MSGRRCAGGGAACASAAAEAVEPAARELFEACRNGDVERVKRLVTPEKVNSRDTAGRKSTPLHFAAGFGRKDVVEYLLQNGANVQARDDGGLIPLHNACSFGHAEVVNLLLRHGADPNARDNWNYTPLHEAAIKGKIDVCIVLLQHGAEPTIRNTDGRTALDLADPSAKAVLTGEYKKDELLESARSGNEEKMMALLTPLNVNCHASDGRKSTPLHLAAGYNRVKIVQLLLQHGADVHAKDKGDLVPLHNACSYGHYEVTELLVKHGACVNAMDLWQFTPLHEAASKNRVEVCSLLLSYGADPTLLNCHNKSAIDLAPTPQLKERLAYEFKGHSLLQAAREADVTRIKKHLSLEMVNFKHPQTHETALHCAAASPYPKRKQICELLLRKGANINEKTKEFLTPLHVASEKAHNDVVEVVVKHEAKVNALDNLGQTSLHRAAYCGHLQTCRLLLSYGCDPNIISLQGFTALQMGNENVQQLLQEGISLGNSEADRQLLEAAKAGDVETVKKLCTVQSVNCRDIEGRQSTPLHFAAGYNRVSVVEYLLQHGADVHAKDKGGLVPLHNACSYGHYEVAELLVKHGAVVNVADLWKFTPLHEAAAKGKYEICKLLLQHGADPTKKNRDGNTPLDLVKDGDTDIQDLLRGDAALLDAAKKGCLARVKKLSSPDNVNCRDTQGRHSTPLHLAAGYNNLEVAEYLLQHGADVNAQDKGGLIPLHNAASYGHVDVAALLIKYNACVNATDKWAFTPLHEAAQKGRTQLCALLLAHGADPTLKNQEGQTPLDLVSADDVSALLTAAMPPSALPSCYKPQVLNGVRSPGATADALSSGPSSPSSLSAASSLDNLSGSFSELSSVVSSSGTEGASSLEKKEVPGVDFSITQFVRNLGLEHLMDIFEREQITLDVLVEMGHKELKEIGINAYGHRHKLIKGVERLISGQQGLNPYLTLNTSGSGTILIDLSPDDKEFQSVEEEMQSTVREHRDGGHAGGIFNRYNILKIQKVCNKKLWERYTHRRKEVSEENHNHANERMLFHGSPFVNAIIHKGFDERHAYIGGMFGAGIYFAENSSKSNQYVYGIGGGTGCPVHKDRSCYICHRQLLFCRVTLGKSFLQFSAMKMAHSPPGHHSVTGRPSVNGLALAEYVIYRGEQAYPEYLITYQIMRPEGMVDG
Experimental: The potency of selected compounds according to the invention was assessed applying a modified in vitro inhibition assay. Here, the TNKS2 catalyzed NAD^+-dependent ribosylation of the enzyme itself (auto-parsylation) was detected using [^3H]-NAD^+ as substrate and applying the scintillation proximity assay (SPA) method to detect tritium-labeled, parsylated TNKS2. The intensity of the readout signal is proportional to the incorporated [^3H]-NAD^+. Inhibition of TNKS2 leads to a decreased incorporation of [^3H]-NAD^+ and consequently to a lower readout signal intensity. The concentration of a test compound which inhibits the enzyme activity by 50% (corresponds to half of the normed readout signal intensity) is reported as IC50.
Protocol Auto-Parsylation Assay
The assay was conducted in a 96 well MTP format with the identical TNKS2 enzyme sample and NAD^+ sample as in the histone ribosylation assay with the following modifications: TNKS2 enzyme sample was diluted with a modified assay buffer (50 mM MES pH 7.0, 1 mM DTT, 0.01% Triton X-100) to a final concentration of 6 nM TNKS2 and 10×NAD^+ solution was diluted with the modified assay buffer (s. above) to a final 0.445×NAD^+ solution doped with 100 Bq/μl [^3H]-NAD^+[Catalog #NET443H050UC, Perkin Elmer, Waltham, Mass., USA]. Substrate solution (10 μl) was incubated with different test compound concentrations (2.5 μl in 10% DMSO in modified assay buffer) or control (2.5 μl 10% DMSO in modified assay buffer only) and enzyme (10 μl) over night at room temperature. Incorporated tritium was measured after addition of 50 ul SPA beads (1 mg/ml) [Catalog #RPNQ0095 20 mg/ml, Perkin Elmer, Waltham, Mass., USA; diluted 1:10 with Dulbecco's phosphate buffered saline, PBS Catalog #D8537, Sigma-Aldrich, Steinheim, Germany] and detection of the photon emission with a beta count plate reader [Wallac MicroBeta®, Perkin Elmer, Waltham, Mass., USA].

[1] = tested on: HEK293 cells cotransfected with the FOP control vector; experiment: HEK293 FOP assay (control reporter with non-functional TCF elements); assay type: cell-based; conditions: Homo sapiens, 16 hours
Experimental: In a parallel approach, HEK293 cells were cotransfected with the FOP control vector and pcDNA3. The FOP vector is identical to the TOP construct, but it contains instead of functional TCF elements a randomized, non-functional sequence. For this transfection a stable transfected cell line was generated as well, based on selection with Geneticin (1 mg/ml).
(§1) In preparation of the assay, the two cell lines were plated 24 h before beginning the test at 10000 cells per well in a 384 micro titre plate (MTP) in 30 μl growth medium. […] The recombinant human Wnt-3a was thereby applied between 2500 and 5 ng/ml in two-fold dilution steps.
(§2) Selective inhibitory activity for small molecules on the wildtype Wnt pathway was determined after parallel incubation of both (TOP and FOP) HEK293 reporter cell lines with a compound dilution series from 50 μM to 15 nM in steps of 3.16-fold dilutions in CAFTY buffer (130 mM sodium chloride, 5 mM potassium chloride, 20 mM HEPES, 1 mM magnesium chloride, 5 mM sodium bicarbonate, pH 7.4) containing 2 mM Ca^2+ and 0.01% BSA.
(§3) The compounds were thereby serially prediluted in 100% DMSO and thereafter 50 fold into the CAFTY compound dilution buffer (described above).

[2] = tested on: wildtype Wnt signaling cascade; experiment: HEK293 TOP assay (Super TopFlash luciferase reporter, Wnt-3a stimulated); assay type: cell-based; conditions: Homo sapiens, HEK293, 16 h, HEK293 TOP reporter cells, Wnt3a at EC50, 16 hours
Description: 7.1 Measurement of the Inhibitory Activity of Selected Compounds on the Wildtype Wnt Signaling Cascade: HEK293 TOP/FOP Assay
In order to discover and characterize small molecules which inhibit the wildtype Wnt pathway, a cellular reporter assay was employed. The corresponding assay cell was generated by transfection of the mammalian cell line HEK293 (ATCC, #CRL-1573) with the Super TopFlash vector (Morin, Science 275, 1997, 1787-1790; Molenaar et al., Cell 86 (3), 1996, 391-399). The HEK293 cell line is cultivated at 37° C. and 5% CO2 in DMEM (Life Technologies, #41965-039), supplemented with 2 mM glutamine, 20 mM HEPES, 1.4 mM pyruvate, 0.15% Na-bicarbonate and 10% foetal bovine serum (GIBCO, #10270). Stable transfectants were generated by selection with 300 μg/ml Hygromycin.
as §1, §2, §3

CCN(c1ccccc1Cl)C(=O)[C@H]1CC[C@H](NC(=O)c2[nH]cnc2C(=O)NC)CC1 [Example 158, N^5-{trans-4-[(2-chlorophenyl)(ethyl)carbamoyl]cyclohexyl}-N^4-methyl-1H-imidazole-4,5-dicarboxamide]
IC50 (TNKS2): 150 nM
IC50 [1]: ≥ 50000 nM
IC50 [2]: 34 nM

CNC(=O)c1nc[nH]c1C(=O)N[C@H]1CC[C@@]2(CCCN(c3ccc(F)cc3Cl)C2=O)CC1 [Example 159]
IC50 (TNKS2): 130 nM
IC50 [1]: ≥ 50000 nM
IC50 [2]: 14 nM

CNC(=O)c1nc[nH]c1C(=O)N[C@H]1CC[C@H](C(=O)Nc2c(Cl)cc(F)cc2C#N)CC1 [Example 174, N^5-{trans-4-[(2-chloro-6-cyano-4-fluorophenyl)carbamoyl]cyclohexyl}-N^4-methyl-1H-imidazole-4,5-dicarboxamide]
IC50 (TNKS2): 240 nM
IC50 [1]: ≥ 50000 nM
IC50 [2]: 79 nM

COC1CN(C(=O)c2nc[nH]c2C(=O)N[C@H]2CC[C@@]3(CCN(c4ccc(F)cc4Cl)C3=O)CC2)C1 [Example 188, N-[(trans)-2-(2-chloro-4-fluorophenyl)-1-oxo-2-azaspiro[4.5]dec-8-yl]-4-[(3-methoxyazetidin-1-yl)carbonyl]-1H-imidazole-5-carboxamide]
IC50 (TNKS2): 2.7 nM
IC50 [1]: ≥ 50000 nM
IC50 [2]: 0.68 nM

O=C(N[C@H]1CC[C@@]2(CCN(c3ccc(F)cc3Cl)C2=O)CC1)c1[nH]cnc1C(=O)N1CC(F)(F)C1 [Example 189, N-[(trans)-2-(2-chloro-4-fluorophenyl)-1-oxo-2-azaspiro[4.5]dec-8-yl]-4-[(3,3-difluoroazetidin-1-yl)carbonyl]-1H-imidazole-5-carboxamide]
IC50 (TNKS2): 5.6 nM
IC50 [1]: 9800 nM
IC50 [2]: 0.3 nM

O=C(N[C@H]1CC[C@@]2(CCN(c3ccc(F)cc3Cl)C2=O)CC1)c1[nH]cnc1C(=O)N1CC(C(F)F)C1 [Example 190, N-[(trans)-2-(2-chloro-4-fluorophenyl)-1-oxo-2-azaspiro[4.5]dec-8-yl]-4-{[3-(difluoromethyl)azetidin-1-yl]carbonyl}-1H-imidazole-5-carboxamide]
IC50 (TNKS2): 2.8 nM
IC50 [1]: 12000 nM
IC50 [2]: 0.06 nM

O=C(N[C@H]1CC[C@@]2(CCN(c3ccc(F)cc3Cl)C2=O)CC1)c1[nH]cnc1C(=O)N1CC(O)C1 [Example 192, N-[(trans)-2-(2-chloro-4-fluorophenyl)-1-oxo-2-azaspiro[4.5]dec-8-yl]-4-[(3-hydroxyazetidin-1-yl)carbonyl]-1H-imidazole-5-carboxamide]
IC50 (TNKS2): 5.3 nM
IC50 [1]: ≥ 50000 nM
IC50 [2]: 0.21 nM

O=C(N[C@H]1CC[C@@]2(CCN(c3ccc(F)cc3Cl)C2=O)CC1)c1[nH]cnc1C(=O)N1CC(OC(F)F)C1 [Example 193, N-[(trans)-2-(2-chloro-4-fluorophenyl)-1-oxo-2-azaspiro[4.5]dec-8-yl]-4-{[3-(difluoromethoxy)azetidin-1-yl]carbonyl}-1H-imidazole-5-carboxamide]
IC50 (TNKS2): 5 nM
IC50 [1]: 16000 nM
IC50 [2]: 0.6 nM

O=C(N[C@H]1CC[C@@]2(CCN(c3ccc(F)cc3Cl)C2=O)CC1)c1[nH]cnc1C(=O)N1CC2(COC2)C1 [Example 194, N-[(trans)-2-(2-chloro-4-fluorophenyl)-1-oxo-2-azaspiro[4.5]dec-8-yl]-4-(2-oxa-6-azaspiro[3.3]hept-6-ylcarbonyl)-1H-imidazole-5-carboxamide]
IC50 (TNKS2): 4.8 nM
IC50 [1]: ≥ 50000 nM
IC50 [2]: 1.5 nM

Cc1cc(C2CC2)n2ncc(C(=O)N[C@H]3CC[C@H](C(=O)Nc4ccc(F)cc4Cl)CC3)c2n1 [Example 204, N-{trans-4-[(2-chloro-4-fluorophenyl)carbamoyl]cyclohexyl}-7-cyclopropyl-5-methylpyrazolo[1,5-a]pyrimidine-3-carboxamide]
IC50 (TNKS2): 160 nM
IC50 [1]: ≥ 50000 nM
IC50 [2]: 48 nM

Cc1cc(C)n2ncc(C(=O)N[C@H]3CC[C@]4(CCN(c5ccc(F)cc5Cl)C4=O)CC3)c2n1 [Example 207, N-[(cis)-2-(2-chloro-4-fluorophenyl)-1-oxo-2-azaspiro[4.5]dec-8-yl]-5,7-dimethylpyrazolo[1,5-a]pyrimidine-3-carboxamide]
IC50 (TNKS2): > 10000 nM
IC50 [1]: ≥ 50000 nM
IC50 [2]: 3500 nM

COCc1cc(C)nc2c(C(=O)N[C@H]3CC[C@@]4(CCN(c5ccc(F)cc5Cl)C4=O)CC3)cnn12 [Example 219, N-[(trans)-2-(2-chloro-4-fluorophenyl)-1-oxo-2-azaspiro[4.5]dec-8-yl]-7-(methoxymethyl)-5-methylpyrazolo[1,5-a]pyrimidine-3-carboxamide]
IC50 (TNKS2): 7.5 nM
IC50 [1]: ≥ 500 nM
IC50 [2]: 5.6 nM

COCc1cc(C)n2ncc(C(=O)N[C@H]3CC[C@@]4(CCN(c5ccc(F)cc5Cl)C4=O)CC3)c2n1 [Example 220, N-[(trans)-2-(2-chloro-4-fluorophenyl)-1-oxo-2-azaspiro[4.5]dec-8-yl]-5-(methoxymethyl)-7-methylpyrazolo[1,5-a]pyrimidine-3-carboxamide]
IC50 (TNKS2): 10 nM
IC50 [1]: 38000 nM
IC50 [2]: 2.6 nM

O=C(N[C@H]1CC[C@@]2(CCN(c3ccc(F)cc3Cl)C2=O)CC1)c1cnc2ccccn12 [Example 223, N-[(trans)-2-(2-chloro-4-fluorophenyl)-1-oxo-2-azaspiro[4.5]dec-8-yl]imidazo[1,2-a]pyridine-3-carboxamide]
IC50 (TNKS2): 1200 nM
IC50 [1]: ≥ 50000 nM
IC50 [2]: 270 nM
